Values of other authors as cited in paper PMC12736120, “First-in-Human Phase I Clinical Trial of SLC-391, a Novel and Selective AXL Inhibitor, in Patients with Advanced Solid Tumours” (Pharmaceuticals, 2025).
pIC50: −log10 of the molar value.

Legend:
AXL = details: stated in the Introduction, no reference given; read-out: IC50 against AXL; cited from earlier work
[1] = tested on: multiple solid tumour and haematological tumour models; design: method as in PMID 33786587, doi:10.1158/1538-7445.AM2014-2716, doi:10.1158/1538-7445.AM2014-1746, doi:10.1158/1538-7445.AM2015-5393, doi:10.1158/1538-7445.AM2017-4196; details: alone or in combination with chemotherapy or immune checkpoint blockade; models including lung cancer, colon cancer, CML, AML; cited from earlier work
TYRO3 = details: stated in the Introduction, no reference given; read-out: IC50 against TYRO3; cited from earlier work
MER = details: stated in the Introduction, no reference given; read-out: IC50 against MER; cited from earlier work

In the case of `Nc1ncc(-c2cnn(C3CCNCC3)c2)cc1-c1nnc(CC2CC2)o1` [SLC-391, 3-(5-[cyclopropylmethyl]-1,3,4-oxadiazol-2-yl)-5-(1-[piperidin-4-yl]-1H-pyrazol-4-yl)-pyridin-2-amine], the pIC50 (AXL) is listed as 8.02, the tumour growth inhibition [1] is listed as “results in tumour growth inhibition” and the pIC50 (TYRO3) is listed as 7.37. The pIC50 (MER) was 7.36.
